Results from the NIST ThermoML archive (doi:10.1016/j.jct.2018.12.021).
± gives the expanded uncertainty stated by the source.

Assay: mn = molality of the nth substance listed, in mol/kg
Settings: for electrical conductivity / mass density: 100 kPa, Liquid; for electrical conductivity: Direct current cell with electrodes; for mass density: Vibrating tube method; for surface tension liquid-gas: Ring tensiometer

Compound: CCCCCCCCCCCC[n+]1cscc1C.[Br-] [N-dodecyl-4-methylthiazolium bromide] + O
- electrical conductivity (293.15 K, m1 = 0.0015): 0.0135 ± 0.00082 S/m
- electrical conductivity (293.15 K, m1 = 0.00206): 0.0179 ± 0.0012 S/m
- electrical conductivity (293.15 K, m1 = 0.0025): 0.0221 ± 0.0014 S/m
- electrical conductivity (293.15 K, m1 = 0.00402): 0.0346 ± 0.0022 S/m
- electrical conductivity (293.15 K, m1 = 0.005): 0.0428 ± 0.0027 S/m
- electrical conductivity (293.15 K, m1 = 0.00708): 0.0591 ± 0.0037 S/m
- electrical conductivity (293.15 K, m1 = 0.00906): 0.0738 ± 0.0032 S/m
- electrical conductivity (293.15 K, m1 = 0.01216): 0.0813 ± 0.0031 S/m
- electrical conductivity (293.15 K, m1 = 0.01507): 0.0893 ± 0.0038 S/m
- electrical conductivity (293.15 K, m1 = 0.02033): 0.106 ± 0.005 S/m
- mass density (293.15 K, m1 = 0.0015): 998.25 ± 1.6 kg/m3
- mass density (293.15 K, m1 = 0.00206): 998.29 ± 1.6 kg/m3
- mass density (293.15 K, m1 = 0.0025): 998.31 ± 1.6 kg/m3
- mass density (293.15 K, m1 = 0.00402): 998.4 ± 1.6 kg/m3
- mass density (293.15 K, m1 = 0.005): 998.45 ± 1.6 kg/m3
- mass density (293.15 K, m1 = 0.00561): 998.48 ± 1.6 kg/m3
- mass density (293.15 K, m1 = 0.00708): 998.56 ± 1.6 kg/m3
- mass density (293.15 K, m1 = 0.00803): 998.6 ± 1.6 kg/m3
- mass density (293.15 K, m1 = 0.00906): 998.66 ± 1.6 kg/m3
- mass density (293.15 K, m1 = 0.01216): 998.81 ± 1.6 kg/m3
- mass density (293.15 K, m1 = 0.01507): 998.96 ± 1.6 kg/m3
- mass density (293.15 K, m1 = 0.01759): 999.07 ± 1.6 kg/m3
- mass density (293.15 K, m1 = 0.02033): 999.21 ± 1.6 kg/m3
- mass density (293.15 K, m1 = 0.02365): 999.38 ± 1.6 kg/m3
- electrical conductivity (298.15 K, m1 = 0.0015): 0.015 ± 0.00092 S/m
- electrical conductivity (298.15 K, m1 = 0.00206): 0.02 ± 0.0013 S/m
- electrical conductivity (298.15 K, m1 = 0.0025): 0.0246 ± 0.0016 S/m
- electrical conductivity (298.15 K, m1 = 0.00402): 0.0387 ± 0.0025 S/m
- electrical conductivity (298.15 K, m1 = 0.005): 0.0479 ± 0.003 S/m
- electrical conductivity (298.15 K, m1 = 0.00708): 0.0662 ± 0.0041 S/m
- electrical conductivity (298.15 K, m1 = 0.00906): 0.0822 ± 0.0036 S/m
- electrical conductivity (298.15 K, m1 = 0.01216): 0.0921 ± 0.0036 S/m
- electrical conductivity (298.15 K, m1 = 0.01507): 0.101 ± 0.0043 S/m
- electrical conductivity (298.15 K, m1 = 0.02033): 0.12 ± 0.0058 S/m
- mass density (298.15 K, m1 = 0.0015): 997.07 ± 1.6 kg/m3
- mass density (298.15 K, m1 = 0.00206): 997.1 ± 1.6 kg/m3
- mass density (298.15 K, m1 = 0.0025): 997.12 ± 1.6 kg/m3
- mass density (298.15 K, m1 = 0.00402): 997.2 ± 1.6 kg/m3
- mass density (298.15 K, m1 = 0.005): 997.25 ± 1.6 kg/m3
- mass density (298.15 K, m1 = 0.00561): 997.29 ± 1.6 kg/m3
- mass density (298.15 K, m1 = 0.00708): 997.36 ± 1.6 kg/m3
- mass density (298.15 K, m1 = 0.00803): 997.42 ± 1.6 kg/m3
- mass density (298.15 K, m1 = 0.00906): 997.47 ± 1.6 kg/m3
- mass density (298.15 K, m1 = 0.01216): 997.62 ± 1.6 kg/m3
- mass density (298.15 K, m1 = 0.01507): 997.75 ± 1.6 kg/m3
- mass density (298.15 K, m1 = 0.01759): 997.86 ± 1.6 kg/m3
- mass density (298.15 K, m1 = 0.02033): 998 ± 1.6 kg/m3
- mass density (298.15 K, m1 = 0.02365): 998.16 ± 1.6 kg/m3
- surface tension liquid-gas (303.15 K, m1 = 0.0015): 47.78 ± 1.6 mN/m
- surface tension liquid-gas (303.15 K, m1 = 0.00206): 43.39 ± 1.4 mN/m
- surface tension liquid-gas (303.15 K, m1 = 0.0025): 41.79 ± 1.4 mN/m
- surface tension liquid-gas (303.15 K, m1 = 0.00402): 39.49 ± 1.3 mN/m
- surface tension liquid-gas (303.15 K, m1 = 0.005): 35.96 ± 1.2 mN/m
- surface tension liquid-gas (303.15 K, m1 = 0.00708): 30.49 ± 1 mN/m
- surface tension liquid-gas (303.15 K, m1 = 0.00906): 30.89 ± 1 mN/m
- surface tension liquid-gas (303.15 K, m1 = 0.01216): 31.36 ± 1 mN/m
- surface tension liquid-gas (303.15 K, m1 = 0.01507): 30.86 ± 1 mN/m
- surface tension liquid-gas (303.15 K, m1 = 0.02033): 30.91 ± 1 mN/m
- electrical conductivity (303.15 K, m1 = 0.0015): 0.0166 ± 0.001 S/m
- electrical conductivity (303.15 K, m1 = 0.00206): 0.0222 ± 0.0015 S/m
- electrical conductivity (303.15 K, m1 = 0.0025): 0.0272 ± 0.0018 S/m
- electrical conductivity (303.15 K, m1 = 0.00402): 0.0428 ± 0.0028 S/m
- electrical conductivity (303.15 K, m1 = 0.005): 0.0529 ± 0.0034 S/m
- electrical conductivity (303.15 K, m1 = 0.00708): 0.0733 ± 0.0046 S/m
- electrical conductivity (303.15 K, m1 = 0.00906): 0.0917 ± 0.004 S/m
